The values below come from patent publication US5962456A, “N-acylpiperazine derivative, anti-ulcer drug, and antibacterial drug” (Shiseido Co., Ltd., priority 1996, dated 1999).

Molecules are shown by their SMILES.

The test system of one data set is mice. To be noted: mouse, in vivo.
The nature of data set [1]: MTT: Cell Damaging and Protecting Effect Test. Format: cell-based, rabbit (male Japanese White). The conditions noted are these: rabbit, gastric corpus mucosa cells, final concentration 10^-4 M, smaller value is better, read-out: MTT cell damaging rate. The source says:
MTT: Cell Damaging and Protecting Effect Test
It is confirmed that there is no toxicity in cell level. Those having a toxicity in cell level are inappropriate as an anti-ulcer drug.
A male Japanese White rabbit (2.5 to 3 kg) was anesthetized to death by Nembutal™ and, immediately thereafter, its stomach was removed. The greater curvature of the stomach was incised so as to remove the stomach contents therefrom. After the mucosal surface was washed with HBSS (Hanks' Balanced Salt Solution), the stomach in ice-cooled HBSS was transferred to a laboratory. Then, after the pyloric antrum was removed, the gastric corpus mucosa was separated by a spatula and then minced into 2 to 3 mm^3 pieces in BME (Basal Medium Eagle). Thereafter, these pieces were shaken at 120 to 130 cycles/minute for 15 minutes at 37° C. in BME 60 ml containing 280 U/ml of dispase and 30 to 50 U/ml of collagenase. Here, the concentration of collagenase was appropriately changed for each lot in view of the state of cells. The pieces were washed twice with EBSS (Earle's Balanced Salt Solution) containing 1 mM of EDTA and then shaken in MEM (Minimum Essential Medium) containing 1 mM of EDTA at 37° C. for 5 minutes. Subsequently, they were shaken in the dispase and collagenase having the same concentrations as those mentioned above for 15 minutes so as to remove the supernatant and then further shaken at 37° C. for 50 to 60 minutes at 120 to 130 cycles/minute. Then, after being washed twice with HBSS, Ham F12 containing 2% of Ultrocer G™ was used to attain the concentration of 1×10^6 cells/ml. Thus formed suspension was dispensed in each well of a 96-well plate by 200 μl. The plate was incubated in the atmosphere composed of 5% CO2 and 95% air at 37° C. for three days so as to attain a confluent state and then subjected to MTT assay.
The sample compound was dissolved in DMSO so as to attain a concentration of 10^-2 M and then diluted with HBSS containing 2% of Ultrocer G™ so as to attain a final concentration of 10^-4 M. To each group, which 8 wells were used for, 10 μl of MTT reagent was added immediately after 100 μl of the medium in each well was exchanged for same volume of the resulting solution of the sample compound. After being incubated in an atmosphere composed of 5% CO2 and 95% air at 37° C. for 4 hours, thus formed solution was centrifuged and then its supernatant was discarded. Subsequently, 100 μl of 100% ethanol was added to the residue so as to dissolve MTT formazan. Then, the absorbance (OD: 570 to 630) was measured by a microplate reader. This method utilizes a phenomenon in which MTT is changed to MTT formazan only by mitochondria of living cells so as to change color.
The cell damaging or cell protecting effect of the sample compound at the final concentration of 10^-4 M was expressed as cell damaging rate (%) as follows:
cell damaging rate (%)=(1-(absorbance in sample group/absorbance in control group))×100
Accordingly, the smaller rate value is better in the cell damage.

Data set [2] deals with isolated gastric fundic gland. Put plainly: CAP: Acid Secretion Inhibition Test In Vitro ([14C]-aminopyrine uptake). It is filed as cell-based, rabbit (male Japanese White). The conditions noted are these: Oryctolagus cuniculus; final concentration 10^-5 M; histamine 10^-5 M; rabbit gastric fundic glands; read-out: CAP acid secretion inhibitory rate. Here is the method:
CAP: Acid Secretion Inhibition Test In Vitro
The acid secretion inhibitory activity in a cell level is studied. It can also be used for studying the mechanism of the effect. […]
ii-a) Preparation of Isolated Gastric Fundus Gland Suspension
First, an isolated gastric fundic gland sample was prepared. Namely, a male Japanese White rabbit (2.5 to 3 kg) was anesthetized to death with Nembutal™ and then the abdomen was incised. Immediately thereafter, the stomach was removed and, after its pyloric and cardiac antrum were severed, incised along its greater curvature into two sheets. The gastric contents adhering to the mucosal surface was washed out with ice-cooled PBS (-) and then carefully washed therein. The gastric wall was spread on a cork board with its mucosal surface facing up and the feed and mucus thereon were completely removed with sterile gauze. The mucosa was separated therefrom by a spatula and then collected in ice-cooled PBS (-). After being washed twice with PBS (-), the mucosa was minced into 2-3 mm^3 pieces by scissors. These pieces were further washed twice with a nutrient solution. […] Into 70 ml of the nutrient solution containing 1 mg/ml of collagenase, minced mucosal pieces were dispersed and intensely stirred in a conical flask with a stirrer at 37° C. for 40 to 60 minutes. During this period, 100% O2 was sprayed on the nutrient solution surface and the pH was appropriately measured such that it was immediately adjusted to pH 7.4, when the value was therebelow, with a base. The nutrient solution was added to the reaction solution so as to attain the total amount of about 200 ml. After being filtered through a mesh, the suspension was divisionally introduced into 50 ml centrifuge tubes and left for 15 minutes such that gastric fundic gland was deposited. The supernatant was repeatedly removed by an aspirator, dispersed in the nutrient solution, and then left such that the gastric fundic gland was washed three times. At this time, without using a pipette, the suspension was alternately introduced into two centrifuge tubes so as to effect dispersion. The number of cells was counted under microscope and adjusted to 1.6×10^6 cells/ml. […]
ii-b) [^14 C]-aminopyrine Uptake Test
Then, [^14 C]-aminopyrine uptake test was performed. After an Eppendorf tube was weighed, 10 μl (final concentration: 10^-5 M) of histamine dissolved in the above-mentioned nutrient solution, 10 μl (final concentration: 10^-5 M) of the test compound dissolved in DMSO, and 10 μl (final concentration: 0.05 μCi/ml) of [^14 C]-aminopyrine diluted with the nutrient solution were introduced therein and then 970 μl of the isolated gastric fundic gland suspension prepared above was added thereto. […] After being centrifuged for 30 minutes, 200 μl of its supernatant was collected into a mini-vial, while the rest was removed by an aspirator. The gland pellet was completely dried as the tube with its lid being opened was kept for one night in a drying oven at 80° C. and then the lid was closed and the weight was determined at room temperature. Then 100 μl of 1N KOH was added thereto and the tube with its lid being closed was treated at 60° C. for 1 to 2 hours so as to dissolve the pellet. Then, the contents thereof were transferred to a mini-vial. Into the mini-vial containing the supernatant or gland pellet, 4 ml of Atomlite™ was added and then the radioactivity was measured by a liquid scintillation counter. Here, after the radioactivity of the gland pellet was corrected by using a sample in which 20 mM of NaSCN was added so as to cancel the hydrogen ion concentration gradient, the integration ratio of aminopyrine specifically trapped by the gland pellet was calculated. This experiment was performed in duplicate. […]
ii-c) Calculation of the Accumulation Rate of Aminopyrine
Here, its principle will be briefly explained. In the isolated gastric fundic gland, acid is accumulated in a space between its secretory tubule and intraglandular cavity.

Method for mice: AT: Single Dose Toxicity Pretest
Male Slc:ICR mice (5-week-old) were used. Each group has 3 to 5 mice and each mouse was fasted, but allowed free access to water, for 4 to 5 hours from 9 a.m. in the test day. Then, 2,000 mg/10 ml/kg of the sample compound dissolved or suspended in an aqueous solution of 0.5% sodium carboxymethyl cellulose was orally administered thereto. To a control, only the vehicle was administered. […] The body weight was measured before and after the fasting as well as at the same time everyday. The dead animals were immediately subjected to autopsy and their organs were observed microscopically. Also, the living animals were sacrificed with ether or carbon dioxide one week after the administration and then their organs were observed microscopically.
The toxicity at the single dose of 2,000 mg/kg of the sample compound was expressed as being classified into 5 levels.
5: Mortality rate is 0%; no toxicity is found at all both in behavior and organs.
4: Mortality rate is 0%; while no toxicity is found in organs, slight toxicity is observed in behavior and body weight increase.
3: While there is a dead animal (though not all the animals are dead), no toxicity is found in organs.
2: Regardless of whether there is a dead animal or not, toxicity is found in organs.
1: All the animals are dead.

Consider `CC(C)Cc1cc(C(=O)N2CCN(c3ccccn3)CC2)ccc1OCc1ccc(F)cc1` [Example 10, 1-[4-(4-fluorobenzyloxy)-3-isobutyl]benzoyl-4-(2-pyridyl) piperazine], for which, in the data set with mice, the “AT single dose toxicity level” value is recorded as 5. The cytotoxicity at 4 h, 100 µM in data set [1] is -34%. In addition, in data set [2], the inhibition at 10 µM is 96%.
